{"source": "patent US9770439B2", "about": "“Hepatitis C virus inhibitors” (priority 2013, dated 2017)", "key": {"[1]": {"test_system": "HCV replicon, genotype-1a variant with glutamine 30 changed to glutamate in the NS5A protein", "settings": "cited from earlier work; for EC50: genotype 1a Q30E replicon"}, "[2]": {"test_system": "HCV replicon, genotype 1a L31V variant with leucine 31 changed to valine in the NS5A protein", "assay_type": "cell-based", "settings": "BMS-790052 titrated with N47 fixed at 200 nM, genotype 1a L31V"}, "[3]": {"test_system": "HCV replicon, genotype 1a Y93H variant with tyrosine 93 changed to histidine in the NS5A protein", "assay_type": "cell-based", "settings": "BMS-790052 titrated with N47 fixed at 200 nM, genotype 1a Y93H", "protocol": "Combinations can be examined for synergistic activity using a variety of putative NS5A-targeting compounds and a variety of test compounds. […] The test compound can be chosen from compounds exemplified below, which were prepared by methods known in the art, or from others disclosed in the literature.\nSimilarly, BMS-790052 can be tested singly and in combination with a fixed amount of compound N47 in the HCV replicon cell based assay consisting of the genotype 1a Y93H variant with tyrosine 93 changed to histidine in the NS5A protein."}, "[4]": {"test_system": "HCV replicon, genotype-1a variant with glutamine 30 changed to glutamate in the NS5A protein", "assay_type": "cell-based", "description": "The NS5A synergistic inhibitory effect of test compounds can be determined using various amounts of an NS5A-targeting compound with titration of a second compound of interest. […] In one embodiment, the HCV genotype strain can be genotype 1a containing a change at amino acid 30 of the NS5A protein consisting of glutamine to glutamate. The test compound can be chosen from compounds listed above or from others present in the literature."}, "[5]": {"settings": "compound alone, read-out: EC50, titrated singly"}, "[6]": {"settings": "ranking of synergist activity, test compound titrated with BMS-790052 fixed at 200 nM, genotype 1a Q30E replicon"}}, "note": "Where two headings read alike, the source gives them in different places.", "data": [{"smiles": "COC(=O)N[C@H](C(=O)N1CCC[C@H]1c1ncc(-c2ccc(-c3ccc(-c4cnc([C@@H]5CCCN5C(=O)[C@@H](NC(=O)OC)C(C)C)[nH]4)cc3)cc2)[nH]1)C(C)C", "note": "[BMS-790052, reference compound]", "values": [{"measurement": "reciprocal synergistic inhibitory effect for the combination (fold)", "setting": "[1]; BMS-790052 titrated with P-55 fixed at 200 nM, genotype 1a Q30E", "value": "~100", "unit": "fold"}, {"measurement": "EC50", "setting": "[1]; P-55 fixed at 200 nM, read-out: EC50 of BMS-790052 in the presence of a fixed amount of P-55", "value": "~2", "unit": "nM"}, {"measurement": "EC50", "setting": "[1]; [5]", "value": "~200", "unit": "nM"}, {"measurement": "synergistic inhibitory effect with the combination (fold)", "setting": "[2]", "value": "> 100", "unit": "fold"}, {"measurement": "synergistic inhibitory effect for the combination (fold)", "setting": "[3]", "value": "> 100", "unit": "fold"}]}, {"smiles": "CC(C)CC(=O)N[C@H](c1ncc(-c2ccc(-c3ccc(-c4cnc([C@@H](NC(=O)CC(C)C)C(C)C)[nH]4)cc3)cc2)[nH]1)C(C)C", "note": "[Compound P-55]", "values": [{"measurement": "synergistic inhibitory effect with the combination (fold)", "setting": "[1]; P-55 titrated with BMS-790052 fixed at 200 nM, genotype 1a Q30E", "value": "> 100", "unit": "fold"}, {"measurement": "EC50", "setting": "[1]; BMS-790052 fixed at 200 nM, read-out: EC50 of P-55 in the presence of a fixed amount of BMS-790052", "value": "~2", "unit": "nM"}, {"measurement": "EC50", "setting": "[1]; [5]", "value": "> 200", "unit": "nM"}]}, {"smiles": "CC(C)(C)C(=O)N[C@H](c1ncc(-c2ccc(-c3ccc(-c4cnc([C@@H](NC(=O)C(C)(C)C)C(C)(C)CF)[nH]4)cc3)cc2)[nH]1)C(C)(C)CF", "note": "[Compound Y-68]", "values": [{"measurement": "Fold-Synergistic 1a (Q30E)", "setting": "[4]; [6]", "value": ">100"}]}, {"smiles": "CC1([C@H](NC(=O)[C@]2(C)CCCC[C@@H]2O)c2ncc(-c3ccc(-c4ccc(-c5cnc([C@@H](NC(=O)[C@]6(C)CCCC[C@@H]6O)C6(C)CC6)[nH]5)cc4)cc3)[nH]2)CC1", "note": "[Compound Y-116]", "values": [{"measurement": "Fold-Synergistic 1a (Q30E)", "setting": "[4]", "value": ">100"}]}, {"smiles": "COC(c1ccccc1)C1(C(=O)N[C@H](c2nc(-c3ccc(-c4ccc(-c5c[nH]c([C@@H](NC(=O)C6(C(OC)c7ccccc7)CC6)C(C)(C)C)n5)cc4)cc3)c[nH]2)C(C)(C)C)CC1", "note": "(some centres unmarked) [Example N-137]", "values": [{"measurement": "Fold-Synergistic 1a (Q30E)", "setting": "[4]; [6]", "value": "<10"}]}]}
